Test results published in publication PMC5467694 (European journal of pharmacology, 2009).

Assays:
[1] = test system: native non-human primate brain NA activity (microsomal and membrane fractions); test: NA inhibition assay, non-human primate brain extracts; type: biochemical, Macaca fascicularis
[2] = test system: recombinant human NAs Neu1–4; test: NA inhibition assay, all 4 recombinant human NAs; type: biochemical; conditions: for partial inhibition of all 4 human NAs: concentrations higher than 1 mM; for inhibition of all 4 human NAs: up to a concentration of 1 mM
recombinant human NAs = conditions: concentrations up to 1 mM; ref Hata et al. (2008); cited from earlier work
[3] = test system: NA activity in rat brain tissue; test: NA inhibition assay, rat brain-derived tissue; type: biochemical; conditions: concentrations up to 1 mM
[4] = biological target: recombinant α1β2γ2 GABAA receptor (Homo sapiens, UniProt P14867+P18507+P47870); test: Electrophysiological GABAA patch-clamp assay; type: cell-based
[5] = test system: NA activity of different viral strains; conditions: read-out: IC50 on NA activity of different viral strains; ref Hata et al. (2008); cited from earlier work
recombinant human Neu1 = recombinant human Neu1 (Homo sapiens, UniProt Q99519); test: NA inhibition assay, recombinant human Neu1; type: biochemical
[6] = test system: Gαi- and Gαs-linked G protein-coupled receptors in whole rat brain membranes; conditions: ref Satoh et al. (2007); cited from earlier work
[7] = Steady-state exposure in adults, standard regimen; type: in vivo, human; conditions: 75 mg twice daily for 5 days
[8] = test system: panel of 155 molecular targets unrelated to NAs; test: Selectivity panel of 155 molecular targets unrelated to NAs; conditions: for pharmacological activity on panel targets: 3 and 30 μM, 50% cut-off for relevance; for low levels of activity, inhibition/stimulation, on eleven targets: at either 3 μM or 30 μM
human Neu2 = conditions: read-out: IC50 on human Neu2; recombinant; ref Hata et al. (2008); cited from earlier work
recombinant human Neu4 = biological target: T1, recombinant human Neu4 (Homo sapiens, UniProt Q8WWR8); test: NA inhibition assay, recombinant human Neu4; type: biochemical
T1 sequence (Q8WWR8 1-484): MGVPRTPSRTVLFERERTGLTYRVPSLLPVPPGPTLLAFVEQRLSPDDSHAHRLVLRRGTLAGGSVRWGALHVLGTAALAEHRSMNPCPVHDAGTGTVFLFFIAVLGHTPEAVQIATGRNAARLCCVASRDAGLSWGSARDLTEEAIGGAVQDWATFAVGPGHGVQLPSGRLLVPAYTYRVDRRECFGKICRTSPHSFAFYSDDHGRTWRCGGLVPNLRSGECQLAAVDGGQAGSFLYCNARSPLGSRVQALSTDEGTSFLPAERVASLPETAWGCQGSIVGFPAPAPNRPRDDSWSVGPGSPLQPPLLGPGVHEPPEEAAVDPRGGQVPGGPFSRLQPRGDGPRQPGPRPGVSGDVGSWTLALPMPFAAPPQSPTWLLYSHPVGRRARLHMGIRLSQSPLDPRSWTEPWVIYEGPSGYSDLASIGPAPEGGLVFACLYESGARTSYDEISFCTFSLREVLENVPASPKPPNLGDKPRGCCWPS

recombinant human Neu2 = recombinant human Neu2 (Homo sapiens, UniProt Q9Y3R4); test: NA inhibition assay, recombinant human Neu2; type: biochemical
human Neu1 = conditions: read-out: IC50 on human Neu1; recombinant; ref Hata et al. (2008); cited from earlier work
recombinant human Neu3 = biological target: T2, recombinant human Neu3 (Homo sapiens, UniProt Q9UQ49); test: NA inhibition assay, recombinant human Neu3; type: biochemical
T2 sequence (Q9UQ49 1-428): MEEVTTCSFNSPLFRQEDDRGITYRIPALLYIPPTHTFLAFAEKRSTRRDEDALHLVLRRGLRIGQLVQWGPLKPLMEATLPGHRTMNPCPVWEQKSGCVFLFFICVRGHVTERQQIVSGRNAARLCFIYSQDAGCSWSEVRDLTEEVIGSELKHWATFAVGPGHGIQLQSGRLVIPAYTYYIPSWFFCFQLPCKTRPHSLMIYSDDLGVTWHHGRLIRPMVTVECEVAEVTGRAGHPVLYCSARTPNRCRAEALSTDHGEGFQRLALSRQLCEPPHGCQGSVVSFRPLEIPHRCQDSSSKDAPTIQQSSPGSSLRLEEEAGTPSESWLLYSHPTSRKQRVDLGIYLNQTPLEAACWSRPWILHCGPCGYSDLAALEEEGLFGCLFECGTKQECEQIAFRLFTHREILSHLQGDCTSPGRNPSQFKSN

human Neu3 = conditions: read-out: IC50 on human Neu3; recombinant; ref Hata et al. (2008); cited from earlier work
human Neu4 = conditions: read-out: IC50 on human Neu4; recombinant; ref Hata et al. (2008); cited from earlier work
[9] = biological target: recombinant influenza virus NA (Influenza A virus, UniProt Q30NP8); test: NA inhibition assay, recombinant influenza virus NA; type: biochemical, influenza strain A/Beijing/39/1975 H3N2
[10] = concentrations higher than 10 mM
[11] = microsomal and membrane fractions, concentrations up to 10 mM
[12] = concentrations higher than 1 mM
[13] = concentrations higher than 2 mM
[14] = concentrations higher than 5 mM

recombinant human Neu2, sequence (Q9Y3R4 whole entry): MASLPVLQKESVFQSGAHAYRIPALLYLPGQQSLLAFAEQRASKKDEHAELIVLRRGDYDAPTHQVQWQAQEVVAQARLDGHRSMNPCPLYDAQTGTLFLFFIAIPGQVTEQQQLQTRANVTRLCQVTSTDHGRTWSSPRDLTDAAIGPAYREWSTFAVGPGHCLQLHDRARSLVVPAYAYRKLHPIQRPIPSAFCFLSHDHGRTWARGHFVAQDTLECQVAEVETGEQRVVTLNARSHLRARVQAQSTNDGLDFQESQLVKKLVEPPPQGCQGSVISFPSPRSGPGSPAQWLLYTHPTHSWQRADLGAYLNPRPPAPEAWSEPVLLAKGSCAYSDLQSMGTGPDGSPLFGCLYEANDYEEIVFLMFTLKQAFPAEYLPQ
recombinant α1β2γ2 GABAA receptor, sequence (P14867 28-456): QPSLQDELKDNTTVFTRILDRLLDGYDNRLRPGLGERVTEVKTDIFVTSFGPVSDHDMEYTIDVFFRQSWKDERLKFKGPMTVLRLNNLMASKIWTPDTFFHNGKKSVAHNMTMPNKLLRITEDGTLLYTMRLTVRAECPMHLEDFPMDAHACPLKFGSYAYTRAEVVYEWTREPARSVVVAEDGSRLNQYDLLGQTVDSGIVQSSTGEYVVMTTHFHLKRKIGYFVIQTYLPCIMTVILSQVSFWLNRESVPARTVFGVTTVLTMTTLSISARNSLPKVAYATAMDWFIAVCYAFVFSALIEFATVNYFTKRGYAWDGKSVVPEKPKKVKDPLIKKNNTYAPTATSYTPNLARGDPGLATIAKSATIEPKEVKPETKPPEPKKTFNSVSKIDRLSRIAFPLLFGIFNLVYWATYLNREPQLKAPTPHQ
recombinant α1β2γ2 GABAA receptor, sequence (P47870 25-512 limits assumed): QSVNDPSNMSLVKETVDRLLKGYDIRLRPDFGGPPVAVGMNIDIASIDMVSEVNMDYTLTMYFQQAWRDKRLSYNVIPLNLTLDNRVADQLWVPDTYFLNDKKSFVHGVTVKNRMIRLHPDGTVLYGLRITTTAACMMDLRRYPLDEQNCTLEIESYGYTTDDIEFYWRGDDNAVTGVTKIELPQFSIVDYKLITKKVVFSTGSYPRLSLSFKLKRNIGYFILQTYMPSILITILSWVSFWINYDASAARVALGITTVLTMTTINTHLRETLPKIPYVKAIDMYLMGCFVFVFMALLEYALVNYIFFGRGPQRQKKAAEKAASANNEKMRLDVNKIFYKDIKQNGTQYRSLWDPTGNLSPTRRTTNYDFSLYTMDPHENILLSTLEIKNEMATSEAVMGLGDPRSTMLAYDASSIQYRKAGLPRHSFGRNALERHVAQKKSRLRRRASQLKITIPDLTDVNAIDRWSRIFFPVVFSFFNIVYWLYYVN
recombinant α1β2γ2 GABAA receptor, sequence (P18507 40-475): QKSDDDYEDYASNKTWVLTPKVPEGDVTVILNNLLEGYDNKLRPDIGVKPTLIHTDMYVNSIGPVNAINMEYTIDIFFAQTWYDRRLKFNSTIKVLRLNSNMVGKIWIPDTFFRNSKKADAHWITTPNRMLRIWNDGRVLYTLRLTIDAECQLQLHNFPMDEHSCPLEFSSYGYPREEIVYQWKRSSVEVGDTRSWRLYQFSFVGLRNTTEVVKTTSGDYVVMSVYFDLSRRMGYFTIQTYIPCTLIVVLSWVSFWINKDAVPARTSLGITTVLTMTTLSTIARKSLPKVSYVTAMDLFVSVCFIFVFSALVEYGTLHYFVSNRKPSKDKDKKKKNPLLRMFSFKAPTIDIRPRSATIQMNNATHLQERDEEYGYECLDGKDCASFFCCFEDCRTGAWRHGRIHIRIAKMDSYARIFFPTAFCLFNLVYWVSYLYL
recombinant influenza virus NA, sequence (Q30NP8 whole entry, looked up): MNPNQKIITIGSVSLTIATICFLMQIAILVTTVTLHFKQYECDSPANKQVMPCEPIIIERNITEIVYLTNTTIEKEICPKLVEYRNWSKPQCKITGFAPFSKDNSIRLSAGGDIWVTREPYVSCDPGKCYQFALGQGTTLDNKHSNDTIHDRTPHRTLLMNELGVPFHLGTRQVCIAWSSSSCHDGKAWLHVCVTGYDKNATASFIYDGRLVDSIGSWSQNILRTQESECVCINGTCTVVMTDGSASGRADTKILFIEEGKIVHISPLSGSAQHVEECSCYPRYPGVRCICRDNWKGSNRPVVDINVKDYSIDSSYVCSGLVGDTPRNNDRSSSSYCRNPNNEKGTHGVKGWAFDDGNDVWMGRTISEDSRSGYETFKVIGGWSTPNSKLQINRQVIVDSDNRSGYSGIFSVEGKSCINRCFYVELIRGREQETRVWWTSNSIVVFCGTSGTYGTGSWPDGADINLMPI

| Structure (SMILES) | inhibition of non-human primate brain NA activity [1, 10] | inhibition of non-human primate brain NA activity [1, 11] | partial inhibition of all 4 human NAs [2] | inhibition of all 4 human NAs [2] | inhibition of NA activity in rat brain tissue [3] | activity on GABAA in patch-clamp, on GABA and pentobarbital [4] | inhibitory activity on Neu1 (recombinant human Neu1; [12]) | inhibitory activity on Neu1 (recombinant human Neu1; concentrations up to 1 mM) | effect on [35S]-GTP-γS binding [6] | extrapolated brain Cmax [7] | pharmacological activity on panel targets [8] | low levels of activity, inhibition/stimulation, on eleven targets [8] | inhibitory activity on Neu4 (recombinant human Neu4; [13]) | inhibitory activity on Neu4 (recombinant human Neu4; concentrations up to 2 mM) | inhibitory activity on Neu2 (recombinant human Neu2; [14]) | inhibitory activity on Neu2 (recombinant human Neu2; concentrations up to 5 mM) | inhibitory activity on Neu3 (recombinant human Neu3; [14]) | inhibitory activity on Neu3 (recombinant human Neu3; concentrations up to 5 mM) | other results |
| --- | --- | --- | --- | --- | --- | --- | --- | --- | --- | --- | --- | --- | --- | --- | --- | --- | --- | --- | --- |
| CCC(CC)O[C@@H]1C=C(C(=O)O)C[C@H](N)[C@H]1NC(C)=O [OC, oseltamivir carboxylate] | partial inhibition | no inhibition | 20–40% | no inhibition | no inhibition | lack of any significant, inhibitory, excitatory or modulatory activity | partial inhibition | no inhibitory activity | no effect | ~ 77 nM | no relevant pharmacological activity | 20–27% | trend for an inhibitory activity | no inhibition | partial inhibition | no inhibition | partial inhibition | no inhibition | inhibitory activity on any of the human NAs (recombinant human NAs): no or negligible inhibitory activity; IC50 [5]: 1.6 to 7.1 nM; IC50 (human Neu2): > 6 mM; IC50 (human Neu1): > 10 mM; IC50 (human Neu3): > 10 mM; IC50 (human Neu4): > 10 mM |
| CCOC(=O)C1=C[C@@H](OC(CC)CC)[C@H](NC(C)=O)[C@@H](N)C1 [OP, oseltamivir phosphate] | partial inhibition | no inhibition | 20–40% | no inhibition | no inhibition | lack of any significant, inhibitory, excitatory or modulatory activity | partial inhibition | no inhibitory activity | no effect | ~ 6.7 nM | no relevant pharmacological activity | 20–41% | trend for an inhibitory activity | no inhibition | partial inhibition | no inhibition | partial inhibition | no inhibition | IC50 [9]: ~0.01 mM |
